Reference: ChEMBL document CHEMBL1147765, “Discovery of N-(2-hydroxy-2-aryl-cyclohexyl) substituted spiropiperidines as GlyT1 antagonists with improved pharmacological profile” (Bioorg Med Chem Lett, 2006)
Values belong to the molecule of their own block, whether it stands above or below them.

Key:
[1] = biological target: T1, Sodium- and chloride-dependent glycine transporter 1 (Homo sapiens, UniProt P48067); assay: Displacement of [3H]glycine from human GlyT1 by radiometric assay
T1 sequence (P48067 whole entry): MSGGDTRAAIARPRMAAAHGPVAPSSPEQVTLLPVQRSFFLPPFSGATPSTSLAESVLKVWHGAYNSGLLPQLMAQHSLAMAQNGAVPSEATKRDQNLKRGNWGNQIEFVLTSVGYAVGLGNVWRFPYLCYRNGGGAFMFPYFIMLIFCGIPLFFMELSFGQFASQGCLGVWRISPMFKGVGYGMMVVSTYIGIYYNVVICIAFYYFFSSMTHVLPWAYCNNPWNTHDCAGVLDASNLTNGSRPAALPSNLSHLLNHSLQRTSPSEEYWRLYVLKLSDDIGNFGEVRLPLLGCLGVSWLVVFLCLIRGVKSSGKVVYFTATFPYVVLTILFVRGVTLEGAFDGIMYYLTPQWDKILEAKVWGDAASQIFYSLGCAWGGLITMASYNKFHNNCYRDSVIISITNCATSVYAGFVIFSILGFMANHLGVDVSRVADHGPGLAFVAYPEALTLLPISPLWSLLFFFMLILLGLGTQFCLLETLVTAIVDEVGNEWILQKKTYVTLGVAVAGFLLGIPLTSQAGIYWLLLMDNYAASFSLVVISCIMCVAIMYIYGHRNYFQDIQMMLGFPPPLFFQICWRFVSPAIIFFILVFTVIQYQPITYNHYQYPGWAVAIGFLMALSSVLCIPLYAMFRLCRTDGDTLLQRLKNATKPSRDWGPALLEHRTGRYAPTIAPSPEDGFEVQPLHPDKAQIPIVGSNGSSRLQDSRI

[2] = biological target: T2, Sodium- and chloride-dependent glycine transporter 2 (Homo sapiens, UniProt Q9Y345); assay: Displacement of [3H]glycine from human GlyT2 by radiometric assay
T2 sequence (Q9Y345 whole entry): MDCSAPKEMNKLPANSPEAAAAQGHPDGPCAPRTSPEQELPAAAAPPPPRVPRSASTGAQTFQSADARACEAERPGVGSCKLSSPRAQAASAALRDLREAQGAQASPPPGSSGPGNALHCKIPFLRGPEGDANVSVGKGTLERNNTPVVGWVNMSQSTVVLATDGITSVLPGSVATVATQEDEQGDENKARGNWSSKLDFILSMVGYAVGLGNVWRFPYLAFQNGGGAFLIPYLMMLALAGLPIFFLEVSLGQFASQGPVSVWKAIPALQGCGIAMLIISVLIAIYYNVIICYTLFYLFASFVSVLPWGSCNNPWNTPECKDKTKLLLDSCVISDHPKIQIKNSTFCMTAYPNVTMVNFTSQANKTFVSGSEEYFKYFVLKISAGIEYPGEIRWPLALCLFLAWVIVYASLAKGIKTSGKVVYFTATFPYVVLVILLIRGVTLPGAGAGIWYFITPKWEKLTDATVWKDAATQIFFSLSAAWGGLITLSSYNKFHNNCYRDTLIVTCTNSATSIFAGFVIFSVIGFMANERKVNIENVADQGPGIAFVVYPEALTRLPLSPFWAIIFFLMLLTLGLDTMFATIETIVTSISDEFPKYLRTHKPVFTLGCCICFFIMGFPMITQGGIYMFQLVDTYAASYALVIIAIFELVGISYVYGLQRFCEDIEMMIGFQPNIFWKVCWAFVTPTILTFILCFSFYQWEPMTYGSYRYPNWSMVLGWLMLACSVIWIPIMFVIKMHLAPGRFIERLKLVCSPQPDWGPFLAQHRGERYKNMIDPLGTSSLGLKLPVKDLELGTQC

[3] = Maximum achievable bioavailability in mouse microsomes; assay type: ADME, Liver, microsome; conditions: read-out: Max Achievable Bioavailability
[4] = Maximum achievable bioavailability in human microsomes; assay type: ADME, Microsome; conditions: human liver microsomes, read-out: Max Achievable Bioavailability
[5] = Clearance in mouse microsomes; assay type: ADME, Liver, Microsome
[6] = Clearance in human microsomes; assay type: ADME, Microsome; conditions: human liver microsomes

Structure (SMILES): CC(C)[C@]1(O)CCCC[C@H]1N1CCC2(CC1)C(=O)NCN2c1ccccc1 (mixture of isomers)
EC50 [1]: > 3000 nM

Structure (SMILES): CC(C)(C)[C@]1(O)CCCC[C@H]1N1CCC2(CC1)C(=O)NCN2c1ccccc1 (racemic)
EC50 [1]: 29000 nM

Structure (SMILES): O=C1NCN(c2ccccc2)C12CCN([C@@H]1CCOC[C@@]1(O)c1ccccc1)CC2 (racemic)
EC50 [1]: 90 nM | EC50 [2]: > 100000 nM

Structure (SMILES): O=C1NCN(c2ccccc2)C12CCN([C@@H]1CCCC[C@@]1(O)Cc1ccccc1)CC2 (racemic)
EC50 [1]: 4400 nM

EC50 [1]: 400 nM | Fh [3]: 81% | Fh [4]: 84% | microsomal CLint [5]: 7 µL/min/mg | microsomal CLint [6]: 5 µL/min/mg
Structure (SMILES): CCCN1CNC(=O)C12CCN([C@@H]1CCCC[C@@]1(O)c1ccccc1)CC2 (racemic)

Structure (SMILES): O=C1NCN(c2ccccc2)C12CCN([C@@H]1CCCC[C@@]1(O)c1ccccc1)CC2 (racemic)
EC50 [1]: 44 nM | EC50 [2]: 72000 nM

Structure (SMILES): O=C1NCN(c2ccccc2)C12CCN([C@@H]1CCCC[C@@]1(O)c1ccc(Cl)c(Cl)c1)CC2 (racemic)
EC50 [1]: 173 nM | EC50 [2]: 6000 nM

Structure (SMILES): Cc1ccc([C@]2(O)CCCC[C@H]2N2CCC3(CC2)C(=O)NCN3c2ccccc2)cc1 (racemic)
EC50 [1]: 140 nM | EC50 [2]: 25000 nM

Structure (SMILES): O=C1NCN(c2ccccc2)C12CCN([C@H]1CCCC[C@@]1(O)c1ccccc1)CC2 (racemic)
EC50 [1]: 56 nM | EC50 [2]: 26000 nM

Structure (SMILES): COc1ccc(N2CNC(=O)C23CCN([C@@H]2CCCC[C@@]2(O)c2ccc(Cl)cc2)CC3)cc1 (racemic)
EC50 [1]: 99 nM | EC50 [2]: 25000 nM

Structure (SMILES): O=C1NCN(c2ccccc2)C12CCN([C@@H]1CCCC[C@@]1(O)c1cccnc1)CC2 (racemic)
EC50 [1]: 110 nM

Structure (SMILES): C[C@]1(O)CCCC[C@H]1N1CCC2(CC1)C(=O)NCN2c1ccccc1 (racemic)
EC50 [1]: 9000 nM

Structure (SMILES): O=C1NCN(c2ccccc2)C12CCN([C@@H]1CCCC[C@@]1(O)c1cccc(Cl)c1)CC2 (racemic)
EC50 [1]: 130 nM | EC50 [2]: 21000 nM

Structure (SMILES): O=C1NCN(c2ccc(Cl)cc2)C12CCN([C@@H]1CCCC[C@@]1(O)c1ccc(F)cc1)CC2 (racemic)
EC50 [1]: 15 nM | EC50 [2]: 2500 nM

Structure (SMILES): O=C1NCN(c2ccccc2)C12CCN([C@@H]1COCC[C@@]1(O)c1ccccc1)CC2 (racemic)
EC50 [1]: 58 nM | EC50 [2]: 35000 nM

Structure (SMILES): O=C1NCN(c2ccccc2)C12CCN([C@@H]1CCCC[C@@]1(O)c1ccccn1)CC2 (racemic)
EC50 [1]: 130 nM | EC50 [2]: > 100000 nM

Structure (SMILES): COc1ccc([C@]2(O)CCCC[C@H]2N2CCC3(CC2)C(=O)NCN3c2ccccc2)cc1 (racemic)
EC50 [1]: 261 nM | EC50 [2]: 67000 nM

microsomal CLint [5]: 10 µL/min/mg | microsomal CLint [6]: 25 µL/min/mg
Structure (SMILES): CCCN1CNC(=O)C12CCN([C@H]1CCCC[C@H]1c1ccccc1)CC2 (racemic)

Structure (SMILES): O=C1NCN(c2ccc(F)cc2)C12CCN([C@@H]1CCCC[C@@]1(O)c1ccc(Cl)cc1)CC2 (racemic)
EC50 [1]: 24 nM | EC50 [2]: 19000 nM

Structure (SMILES): O=C1NCN(c2ccccc2)C12CCN([C@@H]1CCCC[C@@]1(O)c1ccncc1)CC2 (racemic)
EC50 [1]: 62 nM | EC50 [2]: > 100000 nM

Structure (SMILES): O=C1NCN(c2ccccc2)C12CCN([C@@H]1CCCC[C@@]1(O)c1ccc(Cl)cc1)CC2 (racemic)
EC50 [1]: 80 nM | EC50 [2]: 16000 nM

Structure (SMILES): COc1cccc([C@]2(O)CCCC[C@H]2N2CCC3(CC2)C(=O)NCN3c2ccccc2)c1 (racemic)
EC50 [1]: 130 nM | EC50 [2]: 41000 nM

Structure (SMILES): Cc1ccccc1[C@]1(O)CCCC[C@H]1N1CCC2(CC1)C(=O)NCN2c1ccccc1 (racemic)
EC50 [1]: 50 nM | EC50 [2]: 70000 nM

Structure (SMILES): O=C1NCN(c2ccccc2)C12CCN([C@@H]1CCCC[C@@]1(O)C1CCCCC1)CC2 (racemic)
EC50 [1]: 17000 nM

Structure (SMILES): O=C1NCN(c2ccccc2)C12CCN([C@H]1CCCC[C@H]1c1ccccc1)CC2 (racemic)
microsomal CLint [6]: 68 µL/min/mg

Structure (SMILES): O=C1NCN(c2ccc(F)cc2)C12CCN([C@@H]1CCCC[C@@]1(O)c1ccc(F)cc1)CC2 (racemic)
EC50 [1]: 24 nM | EC50 [2]: 36000 nM | microsomal CLint [5]: 102 µL/min/mg | microsomal CLint [6]: 92 µL/min/mg

Structure (SMILES): O=C1NCN(c2ccccc2)C12CCN([C@@H]1CCCC[C@@]1(O)c1ccc(F)cc1)CC2 (relative stereo)
EC50 [1]: 40 nM | EC50 [2]: 57000 nM
